Molecules are shown by their SMILES. Bridge positions count the residues as written; N and C are the ends. Square brackets hold non-standard residues; d marks the D form. Peptide text beside a SMILES is read from it. * marks the point of attachment. ξ: configuration not given here. Ala(4-isoquinolinyl) = N[C@@H](Cc1cncc2ccccc12)C(=O)O; Phe(4-CH2NH2) = NCc1ccc(C[C@H](N)C(=O)O)cc1; Bip = N[C@@H](Cc1ccc(-c2ccccc2)cc1)C(=O)O; Phe(3-OMe) = COc1cccc(C[C@H](N)C(=O)O)c1; Phe(3-Me) = Cc1cccc(C[C@H](N)C(=O)O)c1; Bta = N[C@@H](Cc1csc2ccccc12)C(=O)O; Nva(4-oxo) = CC(=O)C[C@H](N)C(=O)O; Val(3-OH) = CC(C)(O)[C@H](N)C(=O)O; 4Pal = N[C@@H](Cc1ccncc1)C(=O)O; Cha = N[C@@H](CC1CCCCC1)C(=O)O; Cit = NC(=O)NCCC[C@H](N)C(=O)O; Thr(3ξ) = CC(O)[C@H](N)C(=O)O; Carboxymethyl = O=C(O)C*; NMeA = CN[C@@H](C)C(=O)O; Orn = NCCC[C@H](N)C(=O)O; Dab = NCC[C@H](N)C(=O)O; Dap = NC[C@H](N)C(=O)O; ξC = NC(CS)C(=O)O

The target in this experiment is T1, PE-labeled human PD-L1-Ig binding to Jurkat cell line over-expressing human PD-1 (Jurkat-PD-1) (Homo sapiens, UniProt Q15116).
T1 construct: expressed in transfected cells; host or cells: Jurkat
T1 sequence (Q15116 25-288): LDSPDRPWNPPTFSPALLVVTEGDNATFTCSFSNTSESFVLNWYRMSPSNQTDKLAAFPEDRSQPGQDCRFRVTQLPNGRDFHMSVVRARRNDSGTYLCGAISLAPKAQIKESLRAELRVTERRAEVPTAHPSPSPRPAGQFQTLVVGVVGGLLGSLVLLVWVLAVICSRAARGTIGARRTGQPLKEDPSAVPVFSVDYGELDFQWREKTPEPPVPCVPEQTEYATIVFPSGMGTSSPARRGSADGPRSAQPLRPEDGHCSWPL
The experiment is described as follows: Jurkat-PD-1 Cell Binding High-Content Screening Assay (CBA): Method 1. To be noted: Jurkat-hPD-1 cells, PE-labeled PD-L1-Ig 20 nM final; read-out: Jurkat HPDL1 PD1 IC50 (uM) (Method 1).
For `Cc1cccc(C[C@@H]2NC(=O)[C@H](CC(=O)O)NC(=O)[C@H](Cc3ccc(OCC(=O)O)cc3)NC(=O)[C@H](CCN)NC(=O)CSC[C@@H](C(=O)N[C@@H](CCN)C(N)=O)NC(=O)[C@H](C(C)O)NC(=O)[C@H](C(C)C)NC(=O)[C@H](CC3CCCCC3)NC(=O)[C@H](CCN)NC(=O)[C@@H](CC(C)C)NC(=O)[C@H](C)N(C)C(=O)[C@H](Cc3ccc(OCC(=O)O)cc3)NC(=O)[C@H](Cc3ccc(-c4ccccc4)cc3)NC(=O)[C@H](Cc3ccc(OCC(=O)O)cc3)NC2=O)c1` (stereo partly drawn) [Compound 2154] ({CH2CO}-[Dab]Y(Carboxymethyl)D[Phe(3-Me)]Y(Carboxymethyl)[Bip]Y(Carboxymethyl)[NMeA][dL][Dab][Cha]V[Thr(3ξ)]C[Dab]-NH2; thioether N-14), the IC50 – broadly, the midpoint of a concentration-inhibition curve – is 0.01 µM.

For `CC(C)C[C@@H]1NC(=O)[C@H](CCCNC(=N)N)NC(=O)[C@@H](CC(C)C)NC(=O)[C@H](C)N(C)C(=O)[C@H](CCCNC(=N)N)NC(=O)[C@H](Cc2ccc(-c3ccccc3)cc2)NC(=O)[C@H](C(C)C)NC(=O)[C@H](Cc2c[nH]c3ccccc23)NC(=O)[C@H](CC(=O)O)NC(=O)[C@H](Cc2ccc(CN)cc2)NC(=O)[C@H](Cc2ccccc2)NC(=O)CSC[C@@H](C(=O)N[C@@H](C)C(N)=O)NC(=O)[C@H]([C@@H](C)O)NC(=O)[C@H](C(C)C)NC1=O` [Compound 1083] ({CH2CO}-F[Phe(4-CH2NH2)]DWV[Bip]R[NMeA][dL]RLVTCA-NH2; thioether N-14), the IC50 stood at 0.25 µM.

On to `CC(C)C[C@@H]1NC(=O)[C@H](CCN)NC(=O)[C@@H](CC(C)C)NC(=O)[C@H](C)N(C)C(=O)[C@H](CCCNC(=N)N)NC(=O)[C@H](Cc2ccc(-c3ccccc3)cc2)NC(=O)[C@H](C(C)C)NC(=O)[C@H](Cc2cncc3ccccc23)NC(=O)[C@H](CC(=O)O)NC(=O)[C@H](Cc2ccc(O)cc2)NC(=O)[C@H](Cc2ccccc2)NC(=O)CSC[C@@H](C(=O)N[C@@H](C)C(N)=O)NC(=O)[C@H]([C@@H](C)O)NC(=O)[C@H](C(C)C)NC1=O` [Compound 1200] ({CH2CO}-FYD[Ala(4-isoquinolinyl)]V[Bip]R[NMeA][dL][Dab]LVTCA-NH2; thioether N-14), for which the IC50 is 0.49 µM.

In the case of `COc1cccc(C[C@@H]2NC(=O)[C@H](CC(=O)O)NC(=O)[C@H](Cc3ccc(O)cc3)NC(=O)[C@H](Cc3ccccc3)NC(=O)CSC[C@@H](C(=O)N[C@@H](C)C(N)=O)NC(=O)[C@H](CO)NC(=O)[C@H](C(C)C)NC(=O)[C@H](CC(C)C)NC(=O)[C@H](CC(N)=O)NC(=O)[C@@H](C)NC(=O)[C@H](C)N(C)C(=O)[C@H](C(C)C)NC(=O)[C@H](Cc3ccc(-c4ccccc4)cc3)NC(=O)[C@H](CC(C)C)NC2=O)c1` [Compound 1739] ({CH2CO}-FYD[Phe(3-OMe)]L[Bip]V[NMeA][dA]NLVSCA-NH2; thioether N-14), the IC50 came to 0.02 µM.

`CC(C)C[C@@H]1NC(=O)[C@H](Cc2c[nH]c3ccccc23)NC(=O)[C@H](CC(=O)O)NC(=O)[C@H](Cc2ccc(O)cc2)NC(=O)[C@H](Cc2ccccc2)NC(=O)CSC[C@@H](C(=O)NCC(N)=O)NC(=O)[C@H](CO)NC(=O)[C@H](C(C)C)NC(=O)[C@H](CC(C)C)NC(=O)[C@H](CCN)NC(=O)[C@@H](CC(C)C)NC(=O)[C@H](C)N(C)C(=O)[C@H](CCCNC(N)=O)NC(=O)[C@H](Cc2ccc(-c3ccccc3)cc2)NC1=O` [Compound 1512] ({CH2CO}-FYDWL[Bip][Cit][NMeA][dL][Dab]LVSCG-NH2; thioether N-14): the IC50 stood at 0.02 µM.

Turning to `CC(C)C[C@@H]1NC(=O)[C@H](CCCNC(=N)N)NC(=O)[C@H](Cc2csc3ccccc23)NC(=O)[C@H](C)N(C)C(=O)[C@H](CCCN)NC(=O)[C@H](Cc2ccc(-c3ccccc3)cc2)NC(=O)[C@H](C(C)C)NC(=O)[C@H](Cc2c[nH]c3ccccc23)NC(=O)[C@H](CC(=O)O)NC(=O)[C@H](Cc2ccc(O)cc2)NC(=O)[C@H](Cc2ccccc2)NC(=O)CSC[C@@H](C(=O)N[C@@H](C)C(N)=O)NC(=O)[C@H]([C@@H](C)O)NC(=O)[C@H](C(C)C)NC1=O` [Compound 1124] ({CH2CO}-FYDWV[Bip][Orn][NMeA][Bta]RLVTCA-NH2; thioether N-14), the IC50 was 0.69 µM.

`CC[C@H](C)[C@@H]1NC(=O)[C@H](Cc2ccc(-c3ccccc3)cc2)NC(=O)[C@H](C(C)(C)O)NC(=O)[C@H](Cc2cccc(C)c2)NC(=O)[C@H](CC(=O)O)NC(=O)[C@H](Cc2ccc(O)cc2)NC(=O)[C@H](CC(N)=O)NC(=O)CSC[C@@H](C(=O)N[C@@H](CCN)C(N)=O)NC(=O)[C@H]([C@@H](C)O)NC(=O)[C@H](C(C)C)NC(=O)[C@H](CC2CCCCC2)NC(=O)[C@H](CCN)NC(=O)[C@@H](CC(C)C)NC(=O)[C@H](C)N(C)C1=O` [Compound 1691] ({CH2CO}-NYD[Phe(3-Me)][Val(3-OH)][Bip]I[NMeA][dL][Dab][Cha]VTC[Dab]-NH2; thioether N-14): the IC50 came to 0.02 µM.

In the case of `CC(C)C[C@@H]1NC(=O)[C@H](CCCNC(=N)N)NC(=O)[C@@H](CC(C)C)NC(=O)[C@H](C)N(C)C(=O)[C@H](CCCNC(=N)N)NC(=O)[C@H](Cc2ccc(-c3ccccc3)cc2)NC(=O)[C@H](C(C)C)NC(=O)[C@H](Cc2c[nH]c3ccccc23)NC(=O)[C@H](CC(=O)O)NC(=O)[C@H](Cc2ccc(O)cc2)NC(=O)[C@H](CC(N)=O)NC(=O)CSC[C@@H](C(=O)N[C@@H](C)C(N)=O)NC(=O)[C@H](CCCN)NC(=O)[C@H](C(C)C)NC1=O` [Compound 1252] ({CH2CO}-NYDWV[Bip]R[NMeA][dL]RLV[Orn]CA-NH2; thioether N-14), the half-inhibitory concentration (IC50) worked out at 0.09 µM.

As for `CC(C)C[C@H]1NC(=O)[C@H](C)N(C)C(=O)[C@H](C(C)C)NC(=O)[C@H](Cc2ccc(-c3ccccc3)cc2)NC(=O)[C@H](C(C)C)NC(=O)[C@H](Cc2c[nH]c3ccccc23)NC(=O)[C@H](CC(=O)O)NC(=O)[C@H](Cc2ccc(O)cc2)NC(=O)[C@H](CC(N)=O)NC(=O)CSC[C@@H](C(=O)N[C@@H](C)C(N)=O)NC(=O)[C@H]([C@@H](C)O)NC(=O)[C@H](C(C)C)NC(=O)[C@H](CC2CCCCC2)NC(=O)[C@H](CCCNC(=N)N)NC1=O` [Compound 1294] ({CH2CO}-NYDWV[Bip]V[NMeA][dL]R[Cha]VTCA-NH2; thioether N-14), the IC50 was 0.3 µM.

Consider `CC(C)C[C@@H]1NC(=O)[C@H](Cc2c[nH]c3ccccc23)NC(=O)[C@H](CC(=O)O)NC(=O)[C@H](Cc2ccncc2)NC(=O)[C@H](Cc2ccc(OCC(=O)O)cc2)NC(=O)CSC[C@@H](C(=O)N[C@H](CC(N)=O)C(N)=O)NC(=O)[C@H](CO)NC(=O)[C@H](C(C)C)NC(=O)[C@H](CC2CCCCC2)NC(=O)[C@H](CCN)NC(=O)[C@@H](CC(C)C)NC(=O)[C@H](C)N(C)C(=O)[C@H](Cc2ccc(O)cc2)NC(=O)[C@H](Cc2ccc(-c3ccccc3)cc2)NC1=O` [Compound 1907] ({CH2CO}-Y(Carboxymethyl)[4Pal]DWL[Bip]Y[NMeA][dL][Dab][Cha]VSC[dN]-NH2; thioether N-14), for which the IC50 stood at 0.12 µM.

With `CC(=O)C[C@@H]1NC(=O)[C@H](Cc2ccc(OCC(=O)O)cc2)NC(=O)[C@H](Cc2ccccc2)NC(=O)CSC[C@@H](C(=O)N[C@@H](C)C(=O)N[C@@H](CCCCN)C(N)=O)NC(=O)[C@H](CO)NC(=O)[C@H](C(C)C)NC(=O)[C@H](CC(C)C)NC(=O)[C@H](CC(N)=O)NC(=O)[C@@H](CC(C)C)NC(=O)[C@H](C)N(C)C(=O)[C@H](C(C)C)NC(=O)[C@H](Cc2ccc(-c3ccccc3)cc2)NC(=O)[C@H](CC(C)C)NC(=O)[C@H](Cc2c[nH]c3ccccc23)NC1=O` [Compound 2013] ({CH2CO}-FY(Carboxymethyl)[Nva(4-oxo)]WL[Bip]V[NMeA][dL]NLVSCAK-NH2; thioether N-14), the IC50 was 0.01 µM.

On to `CC(C)C[C@H]1NC(=O)[C@H](C)N(C)C(=O)[C@H](C(C)C)NC(=O)[C@H](Cc2ccc(-c3ccccc3)cc2)NC(=O)[C@H](C(C)C)NC(=O)[C@H](Cc2c[nH]c3ccccc23)NC(=O)[C@H](CC(=O)O)NC(=O)[C@H](Cc2ccc(O)cc2)NC(=O)[C@H](CC(N)=O)NC(=O)CSC[C@@H](C(=O)N[C@@H](C)C(N)=O)NC(=O)[C@H]([C@@H](C)O)NC(=O)[C@H](C(C)C)NC(=O)[C@H](CC2CCCCC2)NC(=O)[C@H](CCN)NC1=O` [Compound 1296] ({CH2CO}-NYDWV[Bip]V[NMeA][dL][Dab][Cha]VTCA-NH2; thioether N-14), for which the IC50 was 0.01 µM.

`CC(C)C[C@@H]1NC(=O)[C@H](Cc2c[nH]c3ccccc23)NC(=O)[C@H](CC(=O)O)NC(=O)[C@H](Cc2ccncc2)NC(=O)[C@H](Cc2ccc(OCC(=O)O)cc2)NC(=O)CSC[C@@H](C(=O)N[C@@H](C)C(N)=O)NC(=O)[C@H](CO)NC(=O)[C@H](C(C)C)NC(=O)[C@H](CC(C)C)NC(=O)[C@H](CC(N)=O)NC(=O)[C@@H](CC(C)C)NC(=O)[C@H](C)N(C)C(=O)[C@H](C(C)C)NC(=O)[C@H](Cc2ccc(-c3ccccc3)cc2)NC1=O` [Compound 1591] ({CH2CO}-Y(Carboxymethyl)[4Pal]DWL[Bip]V[NMeA][dL]NLVSCA-NH2; thioether N-14): the IC50 is 0.03 µM.

Turning to `Cc1cccc(C[C@@H]2NC(=O)[C@H](CC(=O)O)NC(=O)[C@H](Cc3ccc(OCC(=O)O)cc3)NC(=O)[C@H](CN)NC(=O)CSCC(C(N)=O)NC(=O)[C@H](CO)NC(=O)[C@H](C(C)C)NC(=O)[C@H](CC(C)C)NC(=O)[C@H](CC(N)=O)NC(=O)[C@@H](CC(C)C)NC(=O)[C@H](C)N(C)C(=O)[C@H](C(C)C)NC(=O)[C@H](Cc3ccc(-c4ccccc4)cc3)NC(=O)[C@H](CC(C)C)NC2=O)c1` (stereo partly drawn) [Compound 1597] ({CH2CO}-[Dap]Y(Carboxymethyl)D[Phe(3-Me)]L[Bip]V[NMeA][dL]NLVS[ξC]-NH2; thioether N-14), the IC50 is 0.05 µM.

In the case of `CCNC(=O)[C@H](CCN)NC(=O)[C@@H]1CSCC(=O)N[C@@H](Cc2ccc(OCC(=O)O)cc2)C(=O)N[C@@H](Cc2ccc(OCC(=O)O)cc2)C(=O)N[C@@H](CC(=O)O)C(=O)N[C@@H](Cc2cccc(C)c2)C(=O)N[C@@H](C(C)C)C(=O)N[C@@H](Cc2ccc(-c3ccccc3)cc2)C(=O)N[C@@H](Cc2ccc(O)cc2)C(=O)N(C)[C@@H](C)C(=O)N[C@H](CC(C)C)C(=O)N[C@@H](CCN)C(=O)N[C@@H](CC2CCCCC2)C(=O)N[C@@H](C(C)C)C(=O)N[C@@H](CCCN)C(=O)N1` [Compound 1870] ({CH2CO}-Y(Carboxymethyl)Y(Carboxymethyl)D[Phe(3-Me)]V[Bip]Y[NMeA][dL][Dab][Cha]V[Orn]C[Dab]-NHEt; thioether N-14), the IC50 was 0.01 µM.

(Values after patent US20240409585A1, “MACROCYCLIC IMMUNOMODULATORS” (priority 2021, published 2024).)
